# Assay results: PMC10721329, “Quisinostat is a brain-penetrant radiosensitizer in glioblastoma” (JCI Insight, 2023)
# Values joined by “and” are separate entries in the source; they are usually repeats but may differ in a detail not shown here. Equal values may be shown once. Read-outs that look alike come from different tables or passages of the source.
# Experiments:
# [1] = Stability in neurobasal cell culture medium at 37°C; type: in vitro ADME; conditions: for %stability: neurobasal cell media, 37C
# Procedure: Hydroxamic acid–based compounds have been reported to display poor stability and high plasma clearance due to the presence of arylesterases and carboxylesterases in rodent blood ([34]). Therefore, we measured the stability of QST in mouse plasma and brain to determine whether drug degradation occurred during our sample preparations and equilibrium dialyses for the determination of unbound drug level (performed at 37°C). […] QST degradation was also observed in mouse brain homogenate (Figure 6B). However, perfusion of mice before brain collection prevented rapid drug degradation in the brain matrix. […] Degradation of QST can also be constrained if plasma and brain samples are processed at 4°C (Supplemental Figure 4A). All subsequent sample preparations were therefore performed on ice-cold baths to avoid degradation of QST in our PK analyses. […] The observed stability is probably due to the absence of esterases in human matrices, which are responsible for degradation of QST ([34]). Because we employed QST in several in vitro studies (Figures 1–4), the stability of the molecule was also tested in the cell media used to culture GSCs (neurobasal medium; see Methods).
# Stability Study in Mouse Plasma, Mouse Brain, Human Plasma, Human Brain, and Neural […]
# The stability of QST was determined in BALB/c mouse plasma, male nude athymic perfused and nonperfused mouse brain homogenate (1:9 w/v of PBS; pH 7.4), human brain (obtained from VRL Eurofins) homogenate (1:4 w/v of PBS; pH 7.4), pooled human plasma (Innovative Research), and neurobasal media. QST stock solutions (1 mM) were prepared in acetonitrile, subsequently diluted in a 40% methanol mixture, and added t o the matrices to make final concentrations of 100 nM or 10 nM. Then 50 or 30 µL of either plasma or brain homogenate containing QST were aliquoted into 1.5-mL microcentrifuge tubes (Eppendorf) and were incubated at either 4 °C or 37 °C for 0, 2, 4, 6, 12, or 24 hours (n = 3 at each time point). […]
# Plasma and brain […]
# homogenate samples were stored at −80 °C until LC-MS/MS analysis. […]
# [2] = Total and unbound QST in plasma and normal brain of non-tumor-bearing mice (equilibrium dialysis, LC-MS/MS); type: in vivo, athymic nude mice
# Procedure: Insufficient drug exposure in the brain is a major hurdle in the treatment of brain tumors. […] On the last treatment day, blood and intact brains were harvested 2 hours after dosing with QST (Figure 6E). […] Each brain hemisphere was processed separately to perform matched PK and PD analyses from the same animal. […] For PD analyses, we homogenized entire hemispheres to obtain whole-tissue protein lysates from each mouse and assessed changes in histone H3 acetylation levels using immunoblotting.
# Our study therefore emphasizes the importance of implementing a PK-PD–guided approach when evaluating or developing new drugs for GBM. Although PK analyses are now commonly performed in preclinical trials for a variety of different brain tumors, these studies typically measure only the total brain-to-plasma concentration ratio as a measure of drug-brain penetration ([74]–[76]). […] Therefore, we employed an equilibrium dialysis method combined with LC-MS/MS analysis to measure the unbound brain-to-plasma concentration, which represents the pharmacologically active fraction of a drug. A crucial finding in our study was the species-specific differences in QST stability. […] A recent study reported that hydroxamic acids such as QST are common substrates of a family of esterases (carboxylesterases) that are abundantly present in rodent plasma but absent in human plasma ([34], [78]). We confirmed that the addition of BNPP, a specific inhibitor of carboxylesterases, stabilized QST in mouse plasma. Our results therefore highlight a large discrepancy in the metabolic stability between rodent and human species. This is an important consideration for translating preclinical studies to the clinic because such differences may hinder further clinical development of promising drug candidates. Our data will thereby serve as a valuable resource and note of caution for future preclinical studies employing QST or similar drugs with species-specific stability.
# QST concentrations in specimens were measured using reverse-phase LC on the AB SCIEX QTRAP6500+ LC-MS/MS system by operating electrospray in the positive ion mode. For liquid chromatographic separation, gradient elution was performed using a Phenomenex Kinetex F5 100 Å column (100 × 2.1 mm, 2.6 μm). The initial composition of the mobile phase was 70% phase A (0.1% formic acid in water) and 30% phase B (0.1% formic acid in 1:1 acetonitrile/methanol) with a 0.35 mL/min flow rate. Gradient elution was achieved as follows: mobile phase (B) was maintained at 30% from 0 to 0.3 minutes, increased to 95% from 0.3 to 0.8 minutes, maintained at 95% from 0.8 to 2.5 minutes, and decreased to 30% from 2.5 to 2.8 minutes. The total run time was 3.5 minutes. The internal standard used in this study was D8-infigratinib. The retention times for QST and D8-infigratinib were 1.6 and 1.8 minutes, respectively. Mass-to-charge ratio transitions were as follows: 395.20 → 144.00 (QST) and 568.08 → 321.00 (D8-infigratinib). LC-MS/MS analysis was performed using an Analyst 1.7 Chromatographic Data System. See Supplemental Methods for detailed PK experiments. […]
# vortex-mixed for 10 s and centrifuged at 12000 g at 4 °C for 10 min. A 100-µL aliquot of the supernatant was transferred to an autosampler vial, and 5 µL was injected into the LC-MS/MS system for analysis. Whenever necessary, appropriate dilutions were made to accommodate the analysis of small volume samples.
# Brain and Brain Tumor Sample Preparation
# Normal brain and brain tumor tissue homogenates were prepared by 1:4 (mass/volume) ratio with PBS. Samples were homogenized under 6.00 m/s speed for 40 seconds with 3 cycles by Bead Ruptor Elite homogenizer (Omni International). Plasma was used as a surrogate matrix for brain/tumor homogenate. Brain homogenate samples from in vivo studies were prepared as described for plasma samples. Analyte and IS were extracted by protein precipitation with methanol containing IS. After centrifugation at 12000 rpm for 10 minutes at 4 °C, 5 µL of […]
# [3] = normal mice, individual mice, n=6
structure (smiles),measurement,setting,value
"Cn1cc(CNCC2CCN(c3ncc(C(=O)NO)cn3)CC2)c2ccccc21 [QST, quisinostat]",%stability,"[1]; 10 nM, time 0 hrs (15 minutes used as zero hour time point)",101.6% and 100.2% and 98.2%
same,%stability,"[1]; 10 nM, time 0 hrs (15 minutes used as zero hour time point), mean",100.0%
same,%stability,"[1]; 10 nM, time 2 hrs",102.7% and 80.7% and 97.1%
same,%stability,"[1]; 10 nM, time 2 hrs, mean",93.5%
same,%stability,"[1]; 10 nM, time 5 hrs",88.0% and 90.7% and 90.1%
same,%stability,"[1]; 10 nM, time 5 hrs, mean",89.6%
same,%stability,"[1]; 10 nM, time 24 hrs",69.7% and 66.1%
same,%stability,"[1]; 10 nM, time 24 hrs, mean",68.5%
same,%stability,"[1]; 100 nM, time 0 hrs (15 minutes used as zero hour time point)",85.1% and 110.5% and 104.4%
same,%stability,"[1]; 100 nM, time 0 hrs (15 minutes used as zero hour time point), mean",100.0%
same,%stability,"[1]; 100 nM, time 2 hrs",109.4% and 82.9% and 110.7%
same,%stability,"[1]; 100 nM, time 2 hrs, mean",101.0%
same,%stability,"[1]; 100 nM, time 5 hrs",95.9% and 77.8% and 80.7%
same,%stability,"[1]; 100 nM, time 5 hrs, mean",84.8%
same,%stability,"[1]; 100 nM, time 24 hrs",73.1% and 67.2% and 68.6%
same,%stability,"[1]; 100 nM, time 24 hrs, mean",69.6%
same,QST intact in cell media,"[1]; neurobasal medium, 24-hour incubation, 37°C",approximately 70%
same,"mean unbound QST level, fold lower in brain than in plasma","[2]; 10 mg/kg IP MWF 2 weeks, 2 hours after last dose",more than 70 fold
same,concentration at 2 h,"[2]; athymic nude, mouse, brain, intraperitoneal, 10 mg/kg, normal mouse brains, individual mice, n=6, read-out: Total QST, brain",45.3 nM
same,concentration at 2 h,"[2]; athymic nude, mouse, brain, intraperitoneal, 10 mg/kg, normal mouse brains, individual mice, n=6, read-out: Unbound QST, brain",1.65 nM
same,concentration at 2 h,"[2]; athymic nude, mouse, brain, ip, 10 mg/kg, normal brain, 10 mg/kg IP MWF 2 weeks, 2 hours after last dose, read-out: unbound drug concentration in the brain",~1.7 nM
same,"Total QST, plasma",[2]; [3],464.014 nM and 281.833 nM and 297.864 nM and 455.378 nM and 301.853 nM and 226.232 nM
same,"UNBOUND [QST], Plasma",[2]; [3],117.95 nM and 180.33 nM and 119.53 nM and 89.59 nM and 183.75 nM and 111.61 nM
same,concentration at 2 h,"[2]; normal mouse brains, individual mice, n=6, read-out: Total QST, brain",26.24 nM and 32.91 nM and 41.935 nM and 27.27 nM and 31.45 nM
same,concentration at 2 h,"[2]; normal mouse brains, individual mice, n=6, read-out: Unbound QST, brain",2.1 nM and 1.36 nM and 1.57 nM and 2.27 nM and 1.31 nM
